For orientation: IC50 means the concentration at which inhibition is half-maximal.

Read-outs that look alike come from different tables or passages of the source.

The subject of data set [1] is Hela cell line. Nature of the data set: MTT test of inhibiting tumor cell activity, Hela. The note with it: read-out: Cytotoxic activity (IC50, μM) Hela. A general note: Tetrazolium assays rely on reduction of a dye to a coloured formazan, in cell work by metabolically active cells.
Protocol: (§1) 3, cell lines: Hela, BGC823, A549 cell line and normal human hepatocytes which are available from Wu Han boster Co., Ltd.;
(§2) Hela, BGC823, A549 cell line and normal human hepatocytes in logarithmic growth phase are subjected to 1000 rpm centrifugation for 5 min, supernatant is then discarded, moderate medium is suspended, the cell concentration is adjusted to 3.5×10^4/well, the cells were seeded in 96-wells culture plate, and following experimental groups are set:
(§3) a negative control group; 22 test groups with same concentration (ie: groups of Compound (1) to Compound (22)); 2 control groups: groups of podophyllotoxin, 4′-demethylepipodophyllotoxin and etoposide.
(§4) Taking RPMI1640 containing 10% of calf serum as nutrient solution, 0.10 mL of cells per well is incubated under conditions of 37 V, 5% CO2 and saturated humidity for 24 h to nearly be covered, then the nutrient solution is discarded. […] 100 μl of DMSO is added to each well, then vibrated at 37° C. by shaker table for 30 min, then measuring absorbance (OD) at 492 nm, calculating MTT ratio=OD value of drug group/OD value of the negative control group.
For data set [2], the system named is A549 cell line. Nature of the data set: MTT test of inhibiting tumor cell activity, A549. To be noted: read-out: Cytotoxic activity (IC50, μM) A549.
Protocol: as §1, §2, §3, §4
Data set [3] deals with BGC823 cell line. Put plainly: MTT test of inhibiting tumor cell activity, BGC823. To be noted: read-out: Cytotoxic activity (IC50, μM) BGC823.
Protocol: as §1, §2, §3, §4
Data set [4] deals with Hela cell line.
Protocol: as §1, §2, §3, §4
For data set [5], the system named is BGC823 cell line.
Protocol: as §1, §2, §3, §4
In data set [6] the test system is A549 cell line.
Protocol: as §1, §2, §3, §4
Setting [7] is: Hela cells, MTT, 48 h cultivation.
The mark [8] stands for this setting: A549 cells, MTT, 48 h cultivation.
Setting [9] is: BGC823 cells, MTT, 48 h cultivation.

In the case of “4-N—(N,N-dimethylamino metanil)-4-deoxy-podophyllotoxin [Compound 15]”, the values for the IC50 in the data set on Hela cell line [1] (setting [7]), in the data set on A549 cell line [2] (setting [8]) and with BGC823 cell line [3] (setting [9]) were 1.33 ± 0.2 µM, above 100 µM and 2.59 ± 0.21 µM, respectively.

As for `COc1cc(C2c3cc4c(cc3C(O)C3COC(=O)C23)OCO4)cc(OC)c1O` (stereo not drawn) [4′-demethylepipodophyllotoxin, reference compound], the IC50 with Hela cell line [1] (setting [7]) was found to be 49 µM; with A549 cell line [2] (setting [8]) it was 52 µM; with BGC823 cell line [3] (setting [9]), 63 µM.

Take `COc1cc(C2c3cc4c(cc3C(Nc3ccc(Cl)c(C)c3)C3COC(=O)C23)OCO4)cc(OC)c1OC` (stereo not drawn) [Compound 1, 4-N-(4-chloro-3-methylaniline)-4-deoxy-podophyllotoxin]: the IC50 is 1.26 ± 0.37 µM in the data set on Hela cell line [4], 0.62 ± 0.13 µM with BGC823 cell line [5] and 1.75 ± 0.83 µM in the data set on A549 cell line [6].

For `COc1ccc(NC2c3cc4c(cc3C(c3cc(OC)c(OC)c(OC)c3)C3C(=O)OCC23)OCO4)cc1F` (stereo not drawn) [Compound 3, 4-N-(3-fluoro-4-methoxyaniline)-4-deoxy-podophyllotoxin], the IC50 is 2.57 ± 0.87 µM in the data set with Hela cell line [1] (setting [7]), 1.97 ± 0.32 µM in the data set with A549 cell line [2] (setting [8]) and 3.16 ± 1.11 µM in the data set with BGC823 cell line [3] (setting [9]).

On to `COc1ccc(NC2c3cc4c(cc3C(c3cc(OC)c(O)c(OC)c3)C3C(=O)OCC23)OCO4)cc1F` (stereo not drawn) [Compound 4, 4-N-(3-fluoro-4-methoxyaniline)-4-deoxy-4′-demethylepipodophyllotoxin], for which the values for the IC50 with Hela cell line [1] (setting [7]), in the data set with A549 cell line [2] (setting [8]) and in the data set on BGC823 cell line [3] (setting [9]) were 1.97 ± 0.16 µM, 3.04 ± 0.23 µM and 0.4 ± 0.17 µM, respectively.

Take `COc1cc(C2c3cc4c(cc3C(Nc3ccc(Cc5ccc(N)cc5)cc3)C3COC(=O)C23)OCO4)cc(OC)c1OC` (stereo not drawn) [Compound 5, 4-N-(4,4′-diaminodiphenylmethane)-4-deoxy-podophyllotoxin]: the figures for the IC50 in the data set on Hela cell line [1] (setting [7]), in the data set on A549 cell line [2] (setting [8]) and with BGC823 cell line [3] (setting [9]) were 7.07 ± 1.63 µM, 2.32 ± 0.06 µM and 17.2 ± 0.34 µM, respectively.

With `COc1cc(C2c3cc4c(cc3C(Nc3ccc(Cc5ccc(N)cc5)cc3)C3COC(=O)C23)OCO4)cc(OC)c1O` (stereo not drawn) [Compound 6, 4-N-(4,4′-diaminodiphenylmethane)-4-deoxy-4′-demethylepipodophyllotoxin], the figures for the IC50 with Hela cell line [1] (setting [7]), in the data set with A549 cell line [2] (setting [8]) and in the data set with BGC823 cell line [3] (setting [9]) were 0.56 ± 0.17 µM, 2.2 ± 0.25 µM and 3.52 ± 0.43 µM, respectively.

On to `COc1ccccc1NC1c2cc3c(cc2C(c2cc(OC)c(OC)c(OC)c2)C2C(=O)OCC12)OCO3` (stereo not drawn) [Compound 7, 4-N-(o-aminoanisole)-4-deoxy-podophyllotoxin], for which the IC50 in the data set on Hela cell line [1] (setting [7]) came out at 13.4 ± 3.31 µM; in the data set with A549 cell line [2] (setting [8]), 3.41 ± 0.1 µM; in the data set with BGC823 cell line [3] (setting [9]) it was 6.26 ± 0.36 µM.

Take `COc1ccccc1NC1c2cc3c(cc2C(c2cc(OC)c(O)c(OC)c2)C2C(=O)OCC12)OCO3` (stereo not drawn) [Compound 8, 4-N-(o-aminoanisole)-4-deoxy-4′-demethylepipodophyllotoxin]: the half-inhibitory concentration (IC50) with Hela cell line [1] (setting [7]) amounted to 1.72 ± 0.3 µM; with A549 cell line [2] (setting [8]) it was 15.3 ± 0.45 µM; with BGC823 cell line [3] (setting [9]), 5.63 ± 1.2 µM.

For `COc1ccc(Cl)cc1NC1c2cc3c(cc2C(c2cc(OC)c(OC)c(OC)c2)C2C(=O)OCC12)OCO3` (stereo not drawn) [Compound 9, 4-N-(4-chloro-2-aminoanisole)-4-deoxy-podophyllotoxin], the IC50 in the data set on Hela cell line [1] (setting [7]) is 8.07 ± 1.81 µM; with A549 cell line [2] (setting [8]) it was 1.71 ± 0.26 µM; with BGC823 cell line [3] (setting [9]), 1.24 ± 0.06 µM.

Regarding `COc1ccc(Cl)cc1NC1c2cc3c(cc2C(c2cc(OC)c(O)c(OC)c2)C2C(=O)OCC12)OCO3` (stereo not drawn) [Compound 10, 4-N-(4-chloro-2-aminoanisole)-4-deoxy-4′-demethylepipodophyllotoxin], the IC50 was 1.35 ± 0.18 µM in the data set on Hela cell line [1] (setting [7]), 3.72 ± 0.41 µM in the data set with A549 cell line [2] (setting [8]) and 1.61 ± 0.37 µM with BGC823 cell line [3] (setting [9]).

With `COc1cc(C2c3cc4c(cc3C(Nc3ccccc3C#N)C3COC(=O)C23)OCO4)cc(OC)c1OC` (stereo not drawn) [Compound 11, 4-N-(o-aminobenzonitrile)-4-deoxy-podophyllotoxin], the IC50 in the data set on Hela cell line [1] (setting [7]) was 16.9 ± 1.48 µM; in the data set with A549 cell line [2] (setting [8]), 1.02 ± 0.07 µM; in the data set with BGC823 cell line [3] (setting [9]) it was above 100 µM.

As to `COc1cc(C2c3cc4c(cc3C(Nc3ccccc3C#N)C3COC(=O)C23)OCO4)cc(OC)c1O` (stereo not drawn) [Compound 12, 4-N-(o-aminobenzonitrile)-4-deoxy-4′-demethylepipodophyllotoxin], the results for the IC50 in the data set with Hela cell line [1] (setting [7]), in the data set with A549 cell line [2] (setting [8]) and in the data set with BGC823 cell line [3] (setting [9]) were 1.92 ± 1.21 µM, 11.6 ± 1.63 µM and 7.91 ± 0.59 µM, respectively.

As for `COc1cc(C2c3cc4c(cc3C(Nc3cc(Cl)c(O)c(Cl)c3)C3COC(=O)C23)OCO4)cc(OC)c1OC` (stereo not drawn) [Compound 13, 4-N-(2,6-dichloro-4-aminophenol)-4-deoxy-podophyllotoxin], the figures for the IC50 in the data set with Hela cell line [1] (setting [7]), in the data set with A549 cell line [2] (setting [8]) and with BGC823 cell line [3] (setting [9]) were 17.6 ± 2.39 µM, 9.66 ± 0.35 µM and 1.58 ± 0.16 µM, respectively.

Consider `COc1cc(C2c3cc4c(cc3C(Nc3cc(Cl)c(O)c(Cl)c3)C3COC(=O)C23)OCO4)cc(OC)c1O` (stereo not drawn) [Compound 14, 4-N-(2,6-dichloro-4-aminophenol)-4-deoxy-4′-demethylepipodophyllotoxin], for which the IC50 in the data set with Hela cell line [1] (setting [7]) was 14.7 ± 0.42 µM; with A549 cell line [2] (setting [8]), 9.41 ± 0.59 µM; in the data set on BGC823 cell line [3] (setting [9]), 13.8 ± 1.42 µM.

Regarding `COc1cc(C2c3cc4c(cc3C(Nc3cccc(S(=O)(=O)N(C)C)c3)C3COC(=O)C23)OCO4)cc(OC)c1O` (stereo not drawn) [Compound 16, 4-N—(N,N-dimethylaminometanil)-4-deoxy-4′-demethylepipodophyllotoxin], the half-inhibitory concentration (IC50) with Hela cell line [1] (setting [7]) was determined as 1.06 ± 0.57 µM; in the data set on A549 cell line [2] (setting [8]), 2.08 ± 0.26 µM; with BGC823 cell line [3] (setting [9]) it was 1.52 ± 0.39 µM.

Take `CCc1ccc([N+](=O)[O-])cc1NC1c2cc3c(cc2C(c2cc(OC)c(OC)c(OC)c2)C2C(=O)OCC12)OCO3` (stereo not drawn) [Compound 17, 4-N-(2-ethyl-5-nitroaniline)-4-deoxy-podophyllotoxin]: the values for the IC50 in the data set with Hela cell line [1] (setting [7]), with A549 cell line [2] (setting [8]) and in the data set on BGC823 cell line [3] (setting [9]) were 6.01 ± 0.71 µM, 1.4 ± 0.28 µM and 4.24 ± 0.79 µM, respectively.

Take `COc1cc(C2c3cc4c(cc3C(Nc3ccccc3Sc3ccccc3N)C3COC(=O)C23)OCO4)cc(OC)c1OC` (stereo not drawn) [Compound 19, 4-N-(2 2′-diaminodiphenylsulfide)-4-deoxy-podophyllotoxin]: the IC50 in the data set on Hela cell line [1] (setting [7]) turned out to be 2.14 ± 0.21 µM; with A549 cell line [2] (setting [8]), 23.2 ± 0.72 µM; in the data set with BGC823 cell line [3] (setting [9]), 6.46 ± 0.33 µM.

For `COc1cc(C2c3cc4c(cc3C(Nc3ccccc3Sc3ccccc3N)C3COC(=O)C23)OCO4)cc(OC)c1O` (stereo not drawn) [Compound 20, 4-N-(2 2′-diaminodiphenylsulfide)-4-deoxy-4′-demethylepipodophyllotoxin], the IC50 is 16.3 ± 0.39 µM in the data set with Hela cell line [1] (setting [7]), 1.42 ± 0.12 µM with A549 cell line [2] (setting [8]) and 2.17 ± 0.23 µM in the data set on BGC823 cell line [3] (setting [9]).

Consider `COc1cc(C2c3cc4c(cc3C(Nc3ccccc3C(F)(F)F)C3COC(=O)C23)OCO4)cc(OC)c1OC` (stereo not drawn) [Compound 21, 4-N-(2-aminobenzotrifluoride)-4-deoxy-podophyllotoxin], for which the IC50 in the data set on Hela cell line [1] (setting [7]) worked out at 2.45 ± 3.04 µM; in the data set with A549 cell line [2] (setting [8]) it was 2.11 ± 0.05 µM; with BGC823 cell line [3] (setting [9]) it was 23.2 ± 0.76 µM.

With `COc1cc(C2c3cc4c(cc3C(Nc3ccccc3C(F)(F)F)C3COC(=O)C23)OCO4)cc(OC)c1O` (stereo not drawn) [Compound 22, 4-N-(2-aminobenzotrifluoride)-4-deoxy-4′-demethylepipodophyllotoxin], the values for the IC50 in the data set with Hela cell line [1] (setting [7]), with A549 cell line [2] (setting [8]) and in the data set on BGC823 cell line [3] (setting [9]) were 5.89 ± 0.48 µM, 9.72 ± 0.98 µM and 6.01 ± 0.12 µM, respectively.

For `COc1cc([C@@H]2c3cc4c(cc3[C@@H](O[C@@H]3O[C@@H]5CO[C@@H](C)O[C@H]5[C@H](O)[C@H]3O)[C@H]3COC(=O)[C@H]23)OCO4)cc(OC)c1O` [VP-16, etoposide, reference compound], the IC50 in the data set on Hela cell line [1] (setting [7]) stood at 13.2 ± 1.65 µM; with A549 cell line [2] (setting [8]), 31.1 ± 1.72 µM; in the data set with BGC823 cell line [3] (setting [9]), 22.3 ± 2.97 µM.

Take `COc1cc([C@@H]2c3cc4c(cc3[C@H](O)[C@H]3COC(=O)[C@H]23)OCO4)cc(OC)c1OC` [podophyllotoxin, reference compound]: the IC50 in the data set on Hela cell line [1] (Homo sapiens, HeLa, 48 h) is 55 µM; in the data set with A549 cell line [2] (Homo sapiens, A549, 48 h), 67 µM; in the data set with BGC823 cell line [3] (Homo sapiens, BGC-823, 48 h), 75 µM.

The values are drawn from patent US9714254B2, “Anilino podophyllin derivative having antitumor activity, method for preparation thereof, and use thereof” (HUBEI UNIVERSITY OF TECHNOLOGY, priority 2013, dated 2017).
